Source: US20240165054A1, “TREATMENT” (Verona Pharma PLC, priority 2022, published 2024)

Tests used:
COPD patients = settings: vs placebo; population as given per drug; cited from earlier work
[1] = test system: patients with moderate to severe COPD; assay: Clinical study of nebulised ensifentrine vs placebo in COPD: lung function (FEV1); type: in vivo, human; settings: all subgroups of COPD patients in the study
Procedure: (§1) A clinical study was conducted to determine the efficacy of ensifentrine in treating COPD compared with placebo. Ensifentrine was administered by nebuliser at a dose of 3 mg twice daily (BID) for 24 weeks. The study was a multi-centre, randomized, double-blind, parallel-group, placebo-controlled trial with around 800 patients and 5:3 randomization.
(§2) The study population included patients aged 40-80 years with moderate to severe COPD (FEV1 30%-70% p.n., FEV1/forced vital capacity [FVC] ratio <0.7, with mMRC≥2). The randomization stratified (a) the use of stable background maintenance LAMA or LABA therapy use (approx. 50%. yes or no) and (b) cigarette smoking (current or former). Inhaled corticosteroid (ICS) maintenance therapy was permitted in up to 20% of patients under certain provisions.
(§3) The primary endpoint of the study was change from baseline in average FEV1 area under the curve (AUC)0-12 h post-dose at week 12. Secondary endpoints of the study included: peak FEV1 over 4 hours post-dose at Week 12; morning trough FEV1 at Week 12; and other endpoints including moderate/severe COPD exacerbations frequency and time to first moderate or severe COPD exacerbation over 24 Weeks.
Baseline FEV1 is the mean of the two measurements taken before study medication on the day of first dosing, i.e. ≤40 minutes and just prior to dosing, pre-dose on day 1. […]

[2] = test system: patients with moderate to severe COPD; assay: Clinical study of nebulised ensifentrine vs placebo in COPD: moderate/severe COPD exacerbations; type: in vivo, human
Procedure: as §1, §2, §3
Exacerbations were defined as worsening of 2 or more major symptoms (dyspnea, sputum volume, and sputum purulence) or worsening of any 1 major symptom together with any 1 of the following minor symptoms: sore throat, colds, fever without other cause, and increased cough or wheeze for at least 2 consecutive days. COPD exacerbations were considered to be of moderate severity if treatment with systemic corticosteroids and/or antibiotics was required and were considered to be severe if hospitalization was required.
The investigational product and placebo were provided in 2.5 mL unit dose format in an ampule and administered via a nebuliser.

| Structure (SMILES) | Rate Reduction (=1-Rate Ratio) of COPD exacerbations (COPD patients) | Improvement in lung function in subgroups [1] | Reduction in relative risk of moderate or severe COPD exacerbation vs placebo ([2]; 3 mg BID by nebuliser, over 24 weeks, including 52% of patients on background bronchodilator medications) | Reduction in the frequency of COPD exacerbations compared with other treatments ([2]; comparison with literature treatments of Table 4) | Time to first exacerbation / frequency of COPD exacerbations (conclusion) ([2]; over 24 weeks) |
| --- | --- | --- | --- | --- | --- |
| CS(=O)(=O)Nc1ccc(C(=O)O[C@@H](Cc2c(Cl)c[n+]([O-])cc2Cl)c2ccc(OC(F)F)c(OCC3CC3)c2)cc1OCC1CC1 [Tanimilast] | 13-28% all doses |  |  |  |  |
| COc1cc2c(cc1OC)-c1c/c(=N\c3c(C)cc(C)cc3C)n(CCNC(N)=O)c(=O)n1CC2 [Ensifentrine, N-(2-{(2E)-9,10-dimethoxy-4-oxo-2-[(2,4,6-trimethylphenyl)imino]-6,7-dihydro-2H-pyrimido[6,1-α]isoquinolin-3(4H)-yl}ethyl)urea] |  | improvement in lung function with ensifentrine that was statistically significant | approximately 40% | greater reduction in the frequency of COPD exacerbations than other treatments | particularly effective in increasing the time to first exacerbation |
